Reference: US11236055B2 (Venenum Biodesign, LLC, priority 2016, dated 2022)

Key:
[1] = target: T1, human TGR5 receptor (Homo sapiens, UniProt Q8TDU6); assay: Human TGR5 cAMP production assay; assay type: cell-based; details: human TGR5, luminescent cAMP assay; coded A-D; read-out: Human TGR5 Lum. cAMP Activity (EC50)
T1 construct: host or cells: CHO-K1 (hTGR5-CHO cells)
T1 sequence (Q8TDU6 1-330): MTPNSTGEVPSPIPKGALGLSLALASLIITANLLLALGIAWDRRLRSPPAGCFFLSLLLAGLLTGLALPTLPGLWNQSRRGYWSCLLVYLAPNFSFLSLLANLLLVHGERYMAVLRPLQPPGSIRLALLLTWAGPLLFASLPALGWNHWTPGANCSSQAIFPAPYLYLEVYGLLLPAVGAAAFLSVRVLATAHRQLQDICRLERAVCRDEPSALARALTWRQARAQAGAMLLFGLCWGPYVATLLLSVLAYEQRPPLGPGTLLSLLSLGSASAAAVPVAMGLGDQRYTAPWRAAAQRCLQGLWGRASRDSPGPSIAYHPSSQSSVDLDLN
Outline: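 Intracellular cAMP read by luminescent enzyme-complementation (XS+) after overnight development, following 1 h room-temperature compound treatment of hTGR5-CHO-K1 cells in IBMX plus anti-cAMP antibody. Compounds tested as half-log dilution series; EC50 derived.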

[2] = test system: Mouse STC-1 cells; assay: STC-1 GLP-1 assay; assay type: cell-based; details: GLP-1 secretion, 2 h, coded A-C, read-out: Mouse STC-1 HTRF GLP-1 Activity (EC50)
Method: We evaluated Compounds of the present invention for their ability to induce GLP-1 production in mouse intestinal neuroendocrine tumor cells. Mouse STC-1 cells were cultured and maintained in high glucose DMEM (Sigma #5796) supplemented with 15% horse serum, 5% Fetal Bovine Serum (FBS), 1% penicillin/streptomycin, and 2 mM L-alanine L-glutamine (GlutaMax). Two days prior to analysis of GLP-1 secretion cells were harvested using Accutase (Sigma), spun down then resuspended in high glucose DMEM media containing 2 mM L-alanine L-glutamine (GlutaMax), 10% charcoal-dextran stripped FBS, and 50 μg/mL Gentamicin, at a density of 100,000 cells/mL. 100 μL of cell suspension was added to each well of a 96-well Poly-D-Lysine coated culture plate (Sigma; cat #2382493) and was incubated at 37° C. with 5% CO2.
Compounds were initially diluted in 100% DMSO (12-point serial dilution by half logs) in a 96-well plate and then were further diluted 1:500 in Hanks' Balanced Salt Solution (HBSS) containing protease inhibitor cocktail, DPP-IV inhibitor, and 0.1% fatty acid free bovine serum albumin. On the day of the experiment cells were washed once with HBSS. After wash, 100 μL of test compound was added to each well. The plate was incubated at 37° C. with 5% CO2 for 2 h. Supernatants were collected and GLP-1 secretion was measured using the Cisbio™ Active GLP-1 HTRF Assay Kit (Cisbio). Briefly, Anti-GLP-1-d2 conjugate and Anti-GLP-1 Terbium Cryptate conjugate stock solutions were prepared as per kit instructions. The two solutions were pre-mixed and 10 μL were transferred to a 384-well low volume plate (Greiner; cat #784075). 10 μL of collected supernatants were added to wells already containing the conjugate solution. The plate was covered and incubated at room temperature overnight. The plate was read on an Envision™ plate reader (Perkin Elmer).
In Table 34, EC50 values obtained from the STC-1 GLP-1 production assay for compounds of the present invention are summarized.

[3] = target: T2, mouse TGR5 receptor (Mus musculus, UniProt Q80SS6); assay: Mouse TGR5 cAMP production assay (HTRF, Cisbio cAMP HiRange); assay type: cell-based; details: HEK293-EBNA cells overexpressing mouse TGR5, HTRF cAMP HiRange; coded A-D
T2 construct: expressed in transfected cells; host or cells: HEK293-EBNA (293 c18, ATCC CRL10852), Hygromycin B selection
T2 sequence (Q80SS6 1-329): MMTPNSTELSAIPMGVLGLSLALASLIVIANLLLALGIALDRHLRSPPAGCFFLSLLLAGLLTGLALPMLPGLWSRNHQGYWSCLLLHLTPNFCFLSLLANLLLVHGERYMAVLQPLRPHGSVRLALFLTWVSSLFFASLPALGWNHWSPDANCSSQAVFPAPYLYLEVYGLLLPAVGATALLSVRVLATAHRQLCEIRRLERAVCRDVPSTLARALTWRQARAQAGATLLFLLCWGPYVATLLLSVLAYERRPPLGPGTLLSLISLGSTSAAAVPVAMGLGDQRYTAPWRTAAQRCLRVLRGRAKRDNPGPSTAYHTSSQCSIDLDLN
Outline: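 cAMP read by HTRF competition after 1 h room-temperature compound exposure of mouse TGR5-overexpressing HEK293-EBNA cells. Cells were suspended in serum-free DMEM containing 500 μM IBMX; compounds ran as 12-point half-log dilutions in duplicate; EC50 derived.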

[4] = target: T2, mouse TGR5 receptor; assay: Mouse TGR5 cAMP production assay (luminescent, DiscoveRx cAMP XS+); assay type: cell-based; details: HEK293-EBNA cells overexpressing mouse TGR5, luminescent cAMP XS+; coded A-D; read-out: Mouse TGR5 Lum. cAMP Activity (EC50)
Outline: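 HEK293-EBNA cells stably expressing mouse TGR5 were suspended in serum-free DMEM with 500 μM IBMX and preincubated 20 min with cAMP antibody. They were then exposed to half-log compound dilutions for 1 h at room temperature. cAMP measured by enzyme-fragment complementation luminescence after overnight incubation; EC50 derived.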

[5] = Absorption vs. first pass metabolism: Cmax with and without 1-aminobenzotriazole (ABT) pre-treatment; assay type: in vivo, mouse; details: ICR mice, ABT 150 mg/kg p.o. 2 h before; compound 10 mg/kg p.o.
Method: Absorption Vs. First Pass Metabolism
In this study, the absorption was examined as compared to first pass metabolism of the compounds of the present invention. ICR mice (Hilltop) were pre-treated with 1-aminobenzotriazole (ABT), a nonselective inhibitor of cytochrome P450 enzymes to inhibit Cyp450-mediated degradation of the compounds in liver.
ABT was administered at 150 mg/kg in 5 mL/kg of 0.04% ethanol in 0.5% methyl cellulose (w/v) by oral gavage, 2 hours prior to test compound administration. The compounds 20AA and 20AC were administered by oral gavage at 10 mg/kg in 10 mL/kg of 20% PEG400/80% (0.5% (w/v) CMC containing 0.25% (v/v) Tween 80) (v/v), 2 hours after the ABT treatment. Blood was collected via orbital bleeding at predose, 0.25, 0.5, 1, 2, and 4 hours post-dose and the quantification of compound levels in plasma was accomplished by means of LC-MS/MS analysis as described in Example 59. Reference compound “Propranolol” that is known to be metabolized by Cyp450 was used as a positive control.
FIG. 4 depicts the Cmax (nM) of the compounds of the present invention with and without ABT pre-treatment.

SMILES	EC50 [1]	EC50 [2]	EC50 [3]	EC50 [4]	Cmax with versus without ABT pre-treatment [5]
COCCN(C(C)(C)c1cccc(-c2ccncc2C)c1)S(=O)(=O)c1ccccc1C(F)(F)F [Compound 13AA, N-(2-methoxyethyl)-N-(2-(3-(3-methylpyridin-4-yl)phenyl)propan-2-yl)-2-(trifluoromethyl)benzenesulfonamide]	< 100 nM	100 to 999 nM	100 to 999 nM		
COc1cnccc1-c1cccc(C(C)(C)NS(=O)(=O)c2ccccc2[N+](=O)[O-])c1 [Compound 2AU]	< 100 nM	1000 to 30000 nM		< 100 nM	
CC(C)NCC(O)COc1cccc2ccccc12 (stereo not shown) [propranolol, Propranolol, reference compound]					significantly higher
COc1cnccc1-c1cccc([C@H](C)NS(=O)(=O)c2ccccc2C(F)(F)F)c1 [Compound 2BQ]	< 100 nM	1000 to 30000 nM		100 to 999 nM	
COc1cnccc1-c1cccc(C(C)(C)NS(=O)(=O)c2ccccc2C(F)(F)F)c1 [Compound 2AV]	< 100 nM	1000 to 30000 nM		100 to 999 nM	

More lines, now with the values ahead:

EC50 [1]	EC50 [2]	EC50 [3]	EC50 [4]	Cmax with versus without ABT pre-treatment [5]	SMILES
< 100 nM	100 to 999 nM	100 to 999 nM			CCOC(=O)CCCN(C(C)(C)c1cccc(-c2ccncc2C)c1)S(=O)(=O)c1ccccc1C(F)(F)F [Compound 14A, Ethyl 4-(N-(2-(3-(3-methylpyridin-4-yl)phenyl)propan-2-yl)-2-(trifluoromethyl)phenylsulfonamido)butanoate]
< 100 nM	100 to 999 nM		100 to 999 nM		CCOc1cnccc1-c1cccc(C(C)(C)NS(=O)(=O)c2ccccc2C(F)(F)F)c1 [Compound 8AC, N-(2-(3-(3-ethoxypyridin-4-yl)phenyl)propan-2-yl)-2-(trifluoromethyl)benzenesulfonamide]
< 100 nM	1000 to 30000 nM	< 100 nM			CC[C@H](NS(=O)(=O)c1ccccc1C(F)(F)F)c1cccc(-c2ccncc2C)c1 [Compound 5AW, (S)-N-(1-(3-(3-methylpyridin-4-yl)phenyl)propyl)-2-(trifluoromethyl)benzenesulfonamide]
